Measurements from the NIST ThermoML archive (doi:10.1021/je400783h).
Numbers after ± are expanded uncertainties.

Details: for surface tension liquid-gas: Drop volume; for viscosity / speed of sound / mass density / vapor or sublimation pressure: Liquid; for viscosity: Capillary tube (Ostwald / Ubbelohde) method; for speed of sound: Pulse-echo method; for vapor or sublimation pressure: Ebulliometric method (Recirculating still)

Compound: OCC1CCCO1 (stereo not given) [2-tetrahydrofurylmethanol]
- surface tension liquid-gas (278.15 K): 39.54 ± 0.28 mN/m
- viscosity (278.15 K, 101.33 kPa): 10.39 ± 0.22 mPa·s
- speed of sound (278.15 K, 101.33 kPa): 1556.4 ± 1.3 m/s
- mass density (278.15 K, 101.33 kPa, Vibrating tube method): 1067.07 ± 0.29 kg/m3
- surface tension liquid-gas (280.65 K): 39.29 ± 0.28 mN/m
- viscosity (280.65 K, 101.33 kPa): 9.487 ± 0.2 mPa·s
- speed of sound (280.65 K, 101.33 kPa): 1547.6 ± 1.2 m/s
- mass density (280.65 K, 101.33 kPa, Vibrating tube method): 1064.96 ± 0.29 kg/m3
- surface tension liquid-gas (283.15 K): 39.03 ± 0.28 mN/m
- mass density (283.15 K, 100 kPa): 1062.84 ± 0.45 kg/m3
- viscosity (283.15 K, 101.33 kPa): 8.684 ± 0.18 mPa·s
- speed of sound (283.15 K, 101.33 kPa): 1538.6 ± 1.2 m/s
- mass density (283.15 K, 101.33 kPa, Vibrating tube method): 1062.84 ± 0.29 kg/m3
- mass density (283.15 K, 2500 kPa): 1064.37 ± 0.48 kg/m3
- mass density (283.15 K, 5000 kPa): 1065.68 ± 0.5 kg/m3
- mass density (283.15 K, 7500 kPa): 1066.97 ± 0.53 kg/m3
- mass density (283.15 K, 10000 kPa): 1068.24 ± 0.56 kg/m3
- mass density (283.15 K, 20000 kPa): 1073.16 ± 0.69 kg/m3
- mass density (283.15 K, 30000 kPa): 1077.84 ± 0.84 kg/m3
- mass density (283.15 K, 40000 kPa): 1082.28 ± 0.99 kg/m3
- mass density (283.15 K, 50000 kPa): 1086.55 ± 1.2 kg/m3
- mass density (283.15 K, 60000 kPa): 1090.57 ± 1.3 kg/m3
- surface tension liquid-gas (285.65 K): 38.78 ± 0.27 mN/m
- viscosity (285.65 K, 101.33 kPa): 7.971 ± 0.17 mPa·s
- speed of sound (285.65 K, 101.33 kPa): 1529.7 ± 1.2 m/s
- mass density (285.65 K, 101.33 kPa, Vibrating tube method): 1060.72 ± 0.29 kg/m3
- surface tension liquid-gas (288.15 K): 38.53 ± 0.27 mN/m
- mass density (288.15 K, 100 kPa): 1058.59 ± 0.44 kg/m3
- viscosity (288.15 K, 101.33 kPa): 7.335 ± 0.15 mPa·s
- speed of sound (288.15 K, 101.33 kPa): 1520.8 ± 1.2 m/s
- mass density (288.15 K, 101.33 kPa, Vibrating tube method): 1058.59 ± 0.29 kg/m3
- mass density (288.15 K, 2500 kPa): 1060.15 ± 0.47 kg/m3
- mass density (288.15 K, 5000 kPa): 1061.47 ± 0.49 kg/m3
- mass density (288.15 K, 7500 kPa): 1062.8 ± 0.52 kg/m3
- mass density (288.15 K, 10000 kPa): 1064.09 ± 0.55 kg/m3
- mass density (288.15 K, 20000 kPa): 1069.11 ± 0.67 kg/m3
- mass density (288.15 K, 30000 kPa): 1073.88 ± 0.81 kg/m3
- mass density (288.15 K, 40000 kPa): 1078.41 ± 0.96 kg/m3
- mass density (288.15 K, 50000 kPa): 1082.72 ± 1.1 kg/m3
- mass density (288.15 K, 60000 kPa): 1086.83 ± 1.3 kg/m3
- surface tension liquid-gas (290.65 K): 38.27 ± 0.27 mN/m
- viscosity (290.65 K, 101.33 kPa): 6.765 ± 0.14 mPa·s
- speed of sound (290.65 K, 101.33 kPa): 1511.8 ± 1.2 m/s
- mass density (290.65 K, 101.33 kPa, Vibrating tube method): 1056.47 ± 0.29 kg/m3
- surface tension liquid-gas (293.15 K): 38.02 ± 0.27 mN/m
- mass density (293.15 K, 100 kPa): 1054.34 ± 0.43 kg/m3
- viscosity (293.15 K, 101.33 kPa): 6.254 ± 0.13 mPa·s
- speed of sound (293.15 K, 101.33 kPa): 1503 ± 1.2 m/s
- mass density (293.15 K, 101.33 kPa, Vibrating tube method): 1054.34 ± 0.28 kg/m3
- mass density (293.15 K, 2500 kPa): 1055.94 ± 0.46 kg/m3
- mass density (293.15 K, 5000 kPa): 1057.3 ± 0.48 kg/m3
- mass density (293.15 K, 7500 kPa): 1058.64 ± 0.51 kg/m3
- mass density (293.15 K, 10000 kPa): 1060 ± 0.53 kg/m3
- mass density (293.15 K, 20000 kPa): 1065.1 ± 0.65 kg/m3
- mass density (293.15 K, 30000 kPa): 1069.97 ± 0.79 kg/m3
- mass density (293.15 K, 40000 kPa): 1074.62 ± 0.93 kg/m3
- mass density (293.15 K, 50000 kPa): 1078.97 ± 1.1 kg/m3
- mass density (293.15 K, 60000 kPa): 1083.18 ± 1.3 kg/m3
- surface tension liquid-gas (295.65 K): 37.77 ± 0.27 mN/m
- viscosity (295.65 K, 101.33 kPa): 5.795 ± 0.12 mPa·s
- speed of sound (295.65 K, 101.33 kPa): 1494.2 ± 1.2 m/s
- mass density (295.65 K, 101.33 kPa, Vibrating tube method): 1052.2 ± 0.28 kg/m3
- surface tension liquid-gas (298.15 K): 37.51 ± 0.27 mN/m
- mass density (298.15 K, 100 kPa): 1050.06 ± 0.43 kg/m3
- viscosity (298.15 K, 101.33 kPa): 5.381 ± 0.11 mPa·s
- speed of sound (298.15 K, 101.33 kPa): 1485.3 ± 1.2 m/s
- mass density (298.15 K, 101.33 kPa, Vibrating tube method): 1050.06 ± 0.28 kg/m3
- mass density (298.15 K, 2500 kPa): 1051.72 ± 0.45 kg/m3
- mass density (298.15 K, 5000 kPa): 1053.11 ± 0.47 kg/m3
- mass density (298.15 K, 7500 kPa): 1054.48 ± 0.49 kg/m3
- mass density (298.15 K, 10000 kPa): 1055.84 ± 0.52 kg/m3
- mass density (298.15 K, 20000 kPa): 1061.08 ± 0.63 kg/m3
- mass density (298.15 K, 30000 kPa): 1066.04 ± 0.76 kg/m3
- mass density (298.15 K, 40000 kPa): 1070.75 ± 0.9 kg/m3
- mass density (298.15 K, 50000 kPa): 1075.22 ± 1.1 kg/m3
- mass density (298.15 K, 60000 kPa): 1079.49 ± 1.2 kg/m3
- surface tension liquid-gas (300.65 K): 37.26 ± 0.27 mN/m
- viscosity (300.65 K, 101.33 kPa): 5.006 ± 0.11 mPa·s
- speed of sound (300.65 K, 101.33 kPa): 1476.5 ± 1.2 m/s
- mass density (300.65 K, 101.33 kPa, Vibrating tube method): 1047.92 ± 0.28 kg/m3
- surface tension liquid-gas (303.15 K): 37.01 ± 0.27 mN/m
- mass density (303.15 K, 100 kPa): 1045.78 ± 0.42 kg/m3
- viscosity (303.15 K, 101.33 kPa): 4.667 ± 0.099 mPa·s
- speed of sound (303.15 K, 101.33 kPa): 1467.8 ± 1.2 m/s
- mass density (303.15 K, 101.33 kPa, Vibrating tube method): 1045.78 ± 0.28 kg/m3
- mass density (303.15 K, 2500 kPa): 1047.47 ± 0.44 kg/m3
- mass density (303.15 K, 5000 kPa): 1048.9 ± 0.46 kg/m3
- mass density (303.15 K, 7500 kPa): 1050.31 ± 0.48 kg/m3
- mass density (303.15 K, 10000 kPa): 1051.69 ± 0.51 kg/m3
- mass density (303.15 K, 20000 kPa): 1057.06 ± 0.61 kg/m3
- mass density (303.15 K, 30000 kPa): 1062.11 ± 0.73 kg/m3
- mass density (303.15 K, 40000 kPa): 1066.94 ± 0.87 kg/m3
- mass density (303.15 K, 50000 kPa): 1071.49 ± 1 kg/m3
- mass density (303.15 K, 60000 kPa): 1075.79 ± 1.2 kg/m3
- vapor or sublimation pressure (303.15 K): 0.09 ± 0.1 kPa
- surface tension liquid-gas (305.65 K): 36.75 ± 0.26 mN/m
- viscosity (305.65 K, 101.33 kPa): 4.359 ± 0.092 mPa·s
- speed of sound (305.65 K, 101.33 kPa): 1459 ± 1.2 m/s
- mass density (305.65 K, 101.33 kPa, Vibrating tube method): 1043.63 ± 0.28 kg/m3
- surface tension liquid-gas (308.15 K): 36.5 ± 0.26 mN/m
- mass density (308.15 K, 100 kPa): 1041.48 ± 0.41 kg/m3
- viscosity (308.15 K, 101.33 kPa): 4.078 ± 0.087 mPa·s
- speed of sound (308.15 K, 101.33 kPa): 1450.3 ± 1.2 m/s
- mass density (308.15 K, 101.33 kPa, Vibrating tube method): 1041.48 ± 0.28 kg/m3
- mass density (308.15 K, 2500 kPa): 1043.19 ± 0.43 kg/m3
- mass density (308.15 K, 5000 kPa): 1044.66 ± 0.45 kg/m3
- mass density (308.15 K, 7500 kPa): 1046.09 ± 0.47 kg/m3
- mass density (308.15 K, 10000 kPa): 1047.48 ± 0.49 kg/m3
- mass density (308.15 K, 20000 kPa): 1052.96 ± 0.59 kg/m3
- mass density (308.15 K, 30000 kPa): 1058.12 ± 0.71 kg/m3
- mass density (308.15 K, 40000 kPa): 1063.05 ± 0.84 kg/m3
- mass density (308.15 K, 50000 kPa): 1067.61 ± 0.98 kg/m3
- mass density (308.15 K, 60000 kPa): 1072.09 ± 1.1 kg/m3
- vapor or sublimation pressure (308.15 K): 0.15 ± 0.1 kPa
- surface tension liquid-gas (310.65 K): 36.25 ± 0.26 mN/m
- viscosity (310.65 K, 101.33 kPa): 3.822 ± 0.081 mPa·s
- speed of sound (310.65 K, 101.33 kPa): 1441.6 ± 1.2 m/s
- mass density (310.65 K, 101.33 kPa, Vibrating tube method): 1039.33 ± 0.27 kg/m3
- surface tension liquid-gas (313.15 K): 35.99 ± 0.26 mN/m
- mass density (313.15 K, 100 kPa): 1037.17 ± 0.4 kg/m3
- viscosity (313.15 K, 101.33 kPa): 3.588 ± 0.076 mPa·s
- speed of sound (313.15 K, 101.33 kPa): 1432.8 ± 1.2 m/s
- mass density (313.15 K, 101.33 kPa, Vibrating tube method): 1037.17 ± 0.27 kg/m3
- mass density (313.15 K, 2500 kPa): 1038.92 ± 0.42 kg/m3
- mass density (313.15 K, 5000 kPa): 1040.41 ± 0.44 kg/m3
